Results on two compounds are retold here after paper PMC10443802, “Targeting a xenobiotic transporter to ameliorate vincristine-induced sensory neuropathy” (JCI Insight, 2023).

Values joined by “and” are separate entries in the source; they are usually repeats but may differ in a detail not shown here. Identical values can stand only once.

Data set [1] is described as follows: Plasma pharmacokinetics of nilotinib in mice. The class given is in vivo, mouse. Particulars: OATP1B2(-/-) mice; for concentration at […]: DBA/1LacJ, mouse, plasma, oral, Plasma concentration of nilotinib. Here is the method: Pharmacokinetic studies. Pharmacokinetic studies were performed following an established protocol […]
0.5% hydroxypropyl-methylcellulose in water) was administered at a dose of 10 mg/kg . Serial whole blood samples (0.25, 0.5, 1, 2, 4, and 6 h) were collected from the submandibular vein for the initial three time - points, from the retro-orbital sinus vein for the subsequent two time-points, and cardiac puncture at the terminal time-point. Blood samples were centrifuged at 11,000 rpm for 5 min, and the plasma supernatants collected and stored at -80°C until analysis by a validated method based on reversed -phase liquid chromatography coupled to tandem mass-spectrometric detection (LC-MS/MS). Livers were collected from the same animals at endpoint and, to prevent continuing metabolic activity, tissues were snap frozen using liquid nitrogen. […]
mg/kg or 100 mg/kg, and after 1.5 h, plasma, liver, and whole DRG were collected. All plasma and tissue specimens were stored at -80°C until further processing. […]
were collected at the final time point. […]
specimens were stored at -80°C until further processing. All tissues were homogenized with 5-mm […]
Finally, the beads were removed, and
WinNonlin version 8.0 (Certara). […]
of the data from the concentration-time curves.
Determination of drug levels. […]
column was maintained at 50°C.

Data set [2] is described as follows: Nilotinib levels in liver and DRG of mice. Type of data set: in vivo, mouse. Particulars: OATP1B2(-/-) mice; for concentration at […]: DBA/1LacJ, mouse, liver, oral, Liver nilotinib.
Description: injection at a dose of 1 mg/kg. Whole blood samples were collected 0.08, 0.25, 0.5, 1, and 4 h, and livers were collected at the final time point.
Finally, the beads were removed, and the homogenized samples were stored at -80°C until analysis by LC-MS/MS.
Pharmacokinetic parameters were calculated by non -compartmental analysis using Phoenix WinNonlin version 8.0 (Certara). Peak plasma concentration (C max) was determined by visual inspection of the data from the concentration-time curves. The linear trapezoidal rule was used to obtain the area under the plasma concentration-time curve (AUC), and drug levels in tissues were corrected for
Quantiva triple quadrupole mass spectrometer from Thermo Fisher Scientific was used for LC-MS/MS
An Accucore aQ column (150 × 2.1 mm, dp = 2.6 μm, Thermo Fisher Scientific) was protected
volume was 5.0 μL. The temperature of the autosampler rack was 4°C, and the temperature of the
column was maintained at 50°C. Mobile phase A consisted of water with 0.1% (v/v) formic acid and
mobile phase B consisted of acetonitrile: methanol (1:1) with 0.1% (v/v) formic acid.
assay setting with the positive voltage applied to the ESI capillary was set at 4000 V, and the capillary
Another data set deals with T1, hOATP1B1 (Homo sapiens, UniProt Q9Y6L6).
T1 sequence (Q9Y6L6 1-691): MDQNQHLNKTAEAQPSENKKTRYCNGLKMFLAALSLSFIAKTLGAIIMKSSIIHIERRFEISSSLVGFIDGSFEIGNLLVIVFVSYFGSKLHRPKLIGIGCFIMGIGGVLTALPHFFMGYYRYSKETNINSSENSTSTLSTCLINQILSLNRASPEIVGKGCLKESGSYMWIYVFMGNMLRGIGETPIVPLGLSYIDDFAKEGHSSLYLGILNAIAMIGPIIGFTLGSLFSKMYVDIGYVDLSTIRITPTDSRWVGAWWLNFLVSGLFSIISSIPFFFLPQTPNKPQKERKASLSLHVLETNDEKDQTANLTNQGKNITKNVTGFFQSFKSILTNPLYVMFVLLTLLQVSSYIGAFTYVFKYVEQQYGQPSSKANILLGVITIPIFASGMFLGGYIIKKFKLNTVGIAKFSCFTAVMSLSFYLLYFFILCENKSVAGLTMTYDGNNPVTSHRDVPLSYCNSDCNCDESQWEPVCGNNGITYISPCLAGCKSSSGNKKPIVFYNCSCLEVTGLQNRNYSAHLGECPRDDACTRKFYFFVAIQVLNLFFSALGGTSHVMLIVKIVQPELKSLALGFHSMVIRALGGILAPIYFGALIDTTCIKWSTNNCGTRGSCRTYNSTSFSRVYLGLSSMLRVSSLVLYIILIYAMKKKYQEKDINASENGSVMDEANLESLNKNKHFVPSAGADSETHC
Description: Inhibition of EβG uptake in HEK293 cells overexpressing hOATP1B1. Particulars: inhibitor 10 μM, 15-min pre-incubation.

A further data set deals with hOATP3A1 (Homo sapiens, UniProt Q9UIG8). Description: Vincristine uptake screen, HeLa cells overexpressing hOATP3A1. The class given is in vitro ADME. Here is the method:
Relative uptake is expressed as percentage change compared with empty vector controls (n = 4–14 per group). […] Human OATP1B1 and OATP1B3 transporter–overexpressed cells were used as positive controls; empty vector controls were used as the negative control. […] Mechanical allodynia (C), thermal hyperalgesia (D), and sciatic nerve maximal action potential amplitudes (E) are expressed as percentage change relative to baseline values (n = 6–8 per group). Statistical analysis was performed using a 2-way ANOVA with Bonferroni’s post hoc test. **P < 0.01, ***P < 0.001, ****P < 0.0001, compared with baseline values. […] Data are shown as mean ± SEM. […]
transfected with transporters of interest, including hOAT1, hOAT3, hOAT4, hOATP1A2, hOATP3A1, hOATP4A1, hOATP5A1, hOATP1C1, hOATP1B1, hOATP1B3, hOATP2B1, hOCT1, hOCT2, hOCTN1, hOCTN2, hASBT, hNTCP, hNPT1, hMATE1, hOSTα/β, hPEPT1, hPEPT2, rOatp1a1, rOatp1a4, rOatp1a5, rOatp1b2, rNtcp, rAsbt, rOat1, and rOct1. Cells were transfected with expression plasmid or vector control lacking any insert using Lipofectin reagent (Invitrogen). Sixteen hours thereafter, cells were washed with transport media (OPTIMEM, Invitrogen) and treated with radiolabeled drug. […] The cellular radioactivity was quantified by liquid scintillation counting as described above. […]

Sequence of hOATP3A1 (Q9UIG8 whole entry): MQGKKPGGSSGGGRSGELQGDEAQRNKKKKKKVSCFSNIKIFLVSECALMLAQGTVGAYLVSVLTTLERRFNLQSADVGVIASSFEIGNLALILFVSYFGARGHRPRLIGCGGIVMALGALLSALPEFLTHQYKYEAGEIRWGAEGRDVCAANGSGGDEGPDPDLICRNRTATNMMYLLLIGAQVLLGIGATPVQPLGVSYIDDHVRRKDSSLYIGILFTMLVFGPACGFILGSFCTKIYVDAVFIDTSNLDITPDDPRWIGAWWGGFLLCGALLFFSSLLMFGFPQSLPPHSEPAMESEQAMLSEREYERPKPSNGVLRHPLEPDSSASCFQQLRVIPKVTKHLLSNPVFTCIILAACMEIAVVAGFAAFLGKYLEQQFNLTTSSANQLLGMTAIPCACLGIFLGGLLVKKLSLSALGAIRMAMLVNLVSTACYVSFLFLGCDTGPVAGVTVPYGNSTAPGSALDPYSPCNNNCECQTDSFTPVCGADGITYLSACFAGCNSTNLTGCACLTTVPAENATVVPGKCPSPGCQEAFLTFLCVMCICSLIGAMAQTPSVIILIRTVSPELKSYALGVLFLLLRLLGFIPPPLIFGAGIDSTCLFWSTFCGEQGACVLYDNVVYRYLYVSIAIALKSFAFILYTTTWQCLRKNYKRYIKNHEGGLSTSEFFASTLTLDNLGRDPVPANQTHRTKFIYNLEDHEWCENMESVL

In the case of `Cc1cn(-c2cc(NC(=O)c3ccc(C)c(Nc4nccc(-c5cccnc5)n4)c3)cc(C(F)(F)F)c2)cn1` [Nilotinib, nilotinib], the concentration at […] in data set [1] (25 mg/kg) was 8020 ng/mL; in data set [1] (100 mg/kg), 25800 ng/mL; in data set [2] (25 mg/kg) it was 11900 ng/g; in data set [2] (100 mg/kg), 33700 ng/g. In addition, the “Plasma concentration of nilotinib” value in data set [1] (25mg/kg) is 9973.68 ng/mL and 13343.6 ng/mL; in data set [1] (100mg/kg) it was 22063.7 ng/mL and 33922 ng/mL. Also, the Liver nilotinib is 14.24 ng/mg tissue and 15.56 ng/mg tissue in data set [2] (25mg/kg); 30.37 ng/mg tissue and 41.94 ng/mg tissue in data set [2] (100mg/kg). Moreover, the “EβG uptake (% of vehicle)” value at hOATP1B1 was 9.108 % of vehicle and 9.828 % of vehicle and 15.7637 % of vehicle.

`CC[C@]1(O)C[C@H]2CN(CCc3c([nH]c4ccccc34)[C@@](C(=O)OC)(c3cc4c(cc3OC)N(C=O)[C@H]3[C@@](O)(C(=O)OC)[C@H](OC(C)=O)[C@]5(CC)C=CCN6CC[C@]43[C@@H]65)C2)C1` [Vincristine, vincristine]: the “Vincristine uptake (% of vector control)” value at hOATP3A1 is 104.00 % of vector control and 96.00 % of vector control and 76.00 % of vector control and 101.00 % of vector control and 79.00 % of vector control and 120.00 % of vector control and 100.00 % of vector control and 111.00 % of vector control.
